Here are results for 58 compounds from patent US12673946B2, “Pyrimidin-4(3H)-one derivatives as TRPV4 antagonists” (RaQualia Pharma Inc., priority 2020, dated 2026).

pIC50: −log10 of the molar value. Where only a bound is given, the exact number is not on record here.

This assay deals with T1, human TRPV4 (Homo sapiens, UniProt Q9HBA0).
T1 construct: host or cells: tetracycline-inducible Flp-In T-REx 293 cells
The experiment in a line: Hypotonicity-induced Ca2+ influx (Fluo-4, FDSS). Type of assay: cell-based. In a few lines:
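Flp-In T-REx 293 cells with tetracycline-induced human TRPV4, loaded with Fluo-4 for 60 min at 25 °C. Compound added 5 min before hypotonic mannitol/CaCl2 solution. Ca2+ signal recorded for 4.5 min on FDSS.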

The mark [1] stands for this setting: Flp-In T-REx 293 cells expressing human TRPV4, examples listed under heading 'Human IC50<50 nM'.
Setting [2] is: Flp-In T-REx 293 cells stably expressing human TRPV4, compounds listed by potency bin (<10 nM Tables 96-1/96-2, <3 nM Table 97).

T1 sequence (Q9HBA0 whole entry): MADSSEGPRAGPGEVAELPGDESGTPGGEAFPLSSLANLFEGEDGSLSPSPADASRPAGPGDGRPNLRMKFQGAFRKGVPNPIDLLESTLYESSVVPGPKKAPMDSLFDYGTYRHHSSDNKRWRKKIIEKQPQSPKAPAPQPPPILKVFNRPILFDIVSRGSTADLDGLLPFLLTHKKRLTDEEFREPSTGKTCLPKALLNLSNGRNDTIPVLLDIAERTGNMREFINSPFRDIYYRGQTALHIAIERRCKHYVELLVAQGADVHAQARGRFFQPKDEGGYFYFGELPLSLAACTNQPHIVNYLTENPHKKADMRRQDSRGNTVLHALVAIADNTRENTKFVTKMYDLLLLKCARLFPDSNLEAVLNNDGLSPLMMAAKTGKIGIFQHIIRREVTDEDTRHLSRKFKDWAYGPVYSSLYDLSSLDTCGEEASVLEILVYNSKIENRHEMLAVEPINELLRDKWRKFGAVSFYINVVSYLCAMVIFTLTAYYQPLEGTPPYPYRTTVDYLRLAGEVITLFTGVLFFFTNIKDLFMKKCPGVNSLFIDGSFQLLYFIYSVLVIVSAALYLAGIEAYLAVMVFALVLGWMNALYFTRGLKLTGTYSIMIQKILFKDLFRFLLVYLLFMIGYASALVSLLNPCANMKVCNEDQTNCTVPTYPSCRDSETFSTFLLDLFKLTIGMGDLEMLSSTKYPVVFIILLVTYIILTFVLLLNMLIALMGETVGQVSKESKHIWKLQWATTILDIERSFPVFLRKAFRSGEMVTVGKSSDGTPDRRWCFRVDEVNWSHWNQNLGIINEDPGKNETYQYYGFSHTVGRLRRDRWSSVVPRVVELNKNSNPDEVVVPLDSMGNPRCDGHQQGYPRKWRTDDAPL

As to `O=C(C(O)c1cccc(-c2cccc(OC(F)(F)F)c2)c1F)N1CCc2nc(C3(c4ccccc4)CC3)[nH]c(=O)c2C1` (stereo not drawn) [44-2], the pIC50 runs as follows: under setting [1], over 7.30; under setting [2], over 8.00.
For `O=C(C(O)c1cccc(-c2cc(Cl)cc(C(F)(F)F)c2)c1)N1CCc2nc(C3(c4ccccc4)CC3)[nH]c(=O)c2C1` (stereo not drawn) [44-3], the pIC50 by setting is: under setting [1], over 7.30; under setting [2], over 8.00.
`O=C(C(O)c1cccc(-c2cccc(C(F)(F)F)n2)c1)N1CCc2nc(C3(c4ccccc4)CC3)[nH]c(=O)c2C1` (stereo not drawn) [44-4]: the pIC50 was over 7.30 under setting [1] and over 8.00 under setting [2].
Regarding `O=C(C(O)c1cccc(-c2ccc(Cl)c(C(F)(F)F)c2)c1)N1CCc2nc(C3(c4ccccc4)CC3)[nH]c(=O)c2C1` (stereo not drawn) [44-5], the negative-log IC50 (pIC50) reads like this: under setting [1], over 7.30; under setting [2], over 8.00.
On to `O=C(C(O)c1cccc(-c2cccc(C(F)(F)F)c2)c1)N1CCc2nc(C3(c4ccccc4)CC3)[nH]c(=O)c2C1` (stereo not drawn) [44-6], for which the pIC50 is over 7.30 under setting [1] and over 8.00 under setting [2].
The corresponding values for `CC(C)(C)c1cccc(-c2cccc(C(O)C(=O)N3CCc4nc(C5(c6ccccc6)CC5)[nH]c(=O)c4C3)c2)c1` (stereo not drawn) [44-7] are over 7.30 and over 8.00.
Regarding `O=C(C(O)c1cccc(-c2cc(C(F)(F)F)cc(C(F)(F)F)c2)c1)N1CCc2nc(C3(c4ccccc4)CC3)[nH]c(=O)c2C1` (stereo not drawn) [44-8], the pIC50 is, setting by setting: under setting [1], over 7.30; under setting [2], over 8.00.
For `O=C(C(O)c1cccc(-c2cc3ccccc3s2)c1)N1CCc2nc(C3(c4ccccc4)CC3)[nH]c(=O)c2C1` (stereo not drawn) [44-9], in that order: over 7.30 and over 8.00.
The compound `O=C(C(O)c1cccc(-c2cc(Cl)cc(Cl)c2)c1)N1CCc2nc(C3(c4ccccc4)CC3)[nH]c(=O)c2C1` (stereo not drawn) [44-10] gave a pIC50 under setting [1] of over 7.30 and a pIC50 under setting [2] of over 8.00.
`O=C(C(O)c1cccc(-c2cc(F)cc(Cl)c2)c1)N1CCc2nc(C3(c4ccccc4)CC3)[nH]c(=O)c2C1` (stereo not drawn) [44-11] showed a pIC50 under setting [1] of over 7.30 and a pIC50 under setting [2] of over 8.00.
On to `O=C(C(O)c1cccc(-c2cnc3ccccc3c2)c1)N1CCc2nc(C3(c4ccccc4)CC3)[nH]c(=O)c2C1` (stereo not drawn) [44-12], for which the pIC50 was over 7.30 under setting [1] and over 8.00 under setting [2].
Take `O=C(C(O)c1cccc(-c2cc(C(F)(F)F)ccc2Cl)c1)N1CCc2nc(C3(c4ccccc4)CC3)[nH]c(=O)c2C1` (stereo not drawn) [44-13]: the pIC50 runs as follows: under setting [1], over 7.30; under setting [2], over 8.00.
The corresponding values for `O=C(C(O)c1cccc(-c2ccc(F)c(Cl)c2)c1)N1CCc2nc(C3(c4ccccc4)CC3)[nH]c(=O)c2C1` (stereo not drawn) [44-14] are over 7.30 and over 8.00.
As for `O=C(C(O)c1cccc(-c2ccc(Cl)c(F)c2)c1)N1CCc2nc(C3(c4ccccc4)CC3)[nH]c(=O)c2C1` (stereo not drawn) [44-15], the pIC50 was over 7.30 under setting [1] and over 8.00 under setting [2].
On to `Cc1cc(Cl)cc(-c2cccc(C(O)C(=O)N3CCc4nc(C5(c6ccccc6)CC5)[nH]c(=O)c4C3)c2)c1` (stereo not drawn) [44-16], for which the pIC50 is, setting by setting: under setting [1], over 7.30; under setting [2], over 8.00.
In the case of `O=C(C(O)c1cccc(-c2ccnc(C(F)(F)F)c2)c1)N1CCc2nc(C3(c4ccccc4)CC3)[nH]c(=O)c2C1` (stereo not drawn) [44-17], the pIC50 under setting [1] is over 7.30 and the pIC50 under setting [2] was over 8.00.
Regarding `O=C(C(O)c1cccc(-c2cccc(SC(F)(F)F)c2)c1)N1CCc2nc(C3(c4ccccc4)CC3)[nH]c(=O)c2C1` (stereo not drawn) [44-18], the pIC50 by setting is: under setting [1], over 7.30; under setting [2], over 8.00.
Consider `O=C(C(O)c1cccc(-c2cncc(C(F)(F)F)c2)c1)N1CCc2nc(C3(c4ccccc4)CC3)[nH]c(=O)c2C1` (stereo not drawn) [44-19], for which, under setting [1], the pIC50 was over 7.30.
`O=C(C(O)c1cccc(-c2cccc(C3CC3)c2)c1)N1CCc2nc(C3(c4ccccc4)CC3)[nH]c(=O)c2C1` (stereo not drawn) [44-20]: the pIC50 under setting [1] was over 7.30.
In turn, `O=C(C(O)c1cccc(-c2cccc(Cl)c2)c1)N1CCc2nc(C3(c4ccccc4)CC3)[nH]c(=O)c2C1` (stereo not drawn) [44-21] showed a pIC50 under setting [1] of over 7.30.
Regarding `O=C(C(O)c1cccc(-c2cccc(C(F)(F)F)c2)c1F)N1CCc2nc(C3(c4ccccc4)CC3)[nH]c(=O)c2C1` (stereo not drawn) [44-22], under setting [1], the pIC50 is over 7.30.
Take `O=C(C(O)c1cccc(-c2ccnc(C(F)(F)F)c2)c1F)N1CCc2nc(C3(c4ccccc4)CC3)[nH]c(=O)c2C1` (stereo not drawn) [44-23]: the pIC50 under setting [1] is over 7.30.
Turning to `O=C(C(O)c1cccc(-c2ccc(OC(F)(F)F)cc2)c1)N1CCc2nc(C3(c4ccccc4)CC3)[nH]c(=O)c2C1` (stereo not drawn) [44-24], the pIC50 under setting [1] is over 7.30.
Under setting [1], `O=C(C(O)c1cccc(-c2ccc(C(F)(F)F)cc2)c1)N1CCc2nc(C3(c4ccccc4)CC3)[nH]c(=O)c2C1` (stereo not drawn) [44-25] showed a pIC50 of over 7.30.
Still for that read-out and setting: the value for `Cc1ccc(-c2cccc(C(O)C(=O)N3CCc4nc(C5(c6ccccc6)CC5)[nH]c(=O)c4C3)c2)cc1Cl` (stereo not drawn) [44-26] was over 7.30; that for `O=C(C(O)c1cccc(-c2csc(Cl)c2)c1)N1CCc2nc(C3(c4ccccc4)CC3)[nH]c(=O)c2C1` (stereo not drawn) [44-27] was over 7.30; that for `O=C(C(O)c1cccc(-c2cc(F)ccc2Cl)c1)N1CCc2nc(C3(c4ccccc4)CC3)[nH]c(=O)c2C1` (stereo not drawn) [44-28] was over 7.30.
Turning to `COCCOc1cccc(-c2cccc(C(O)C(=O)N3CCc4nc(C5(c6ccccc6)CC5)[nH]c(=O)c4C3)c2)c1` (stereo not drawn) [44-29], under setting [1], the pIC50 was over 7.30.
Under setting [1], `O=C(C(O)c1cccc(-c2ccc(Cl)s2)c1)N1CCc2nc(C3(c4ccccc4)CC3)[nH]c(=O)c2C1` (stereo not drawn) [44-30] gave a pIC50 of over 7.30.
`O=C(C(O)c1cccc(-c2ccc(C(F)F)cc2)c1)N1CCc2nc(C3(c4ccccc4)CC3)[nH]c(=O)c2C1` (stereo not drawn) [44-31]: the pIC50 under setting [1] was over 7.30.
On to `N#Cc1cccc(-c2cccc(C(O)C(=O)N3CCc4nc(C5(c6ccccc6)CC5)[nH]c(=O)c4C3)c2)c1` (stereo not drawn) [44-32], for which the pIC50 under setting [1] was over 7.30.
Same read-out and setting: the value for `O=C(C(O)c1cccc(-c2cccc(F)c2)c1F)N1CCc2nc(C3(c4ccccc4)CC3)[nH]c(=O)c2C1` (stereo not drawn) [44-33] was over 7.30.
In the case of `Cc1ccc(-c2cccc(C(O)C(=O)N3CCc4nc(C5(c6ccccc6)CC5)[nH]c(=O)c4C3)c2)cc1F` (stereo not drawn) [44-34], under setting [1], the pIC50 is over 7.30.
`Cc1cc(F)cc(-c2cccc(C(O)C(=O)N3CCc4nc(C5(c6ccccc6)CC5)[nH]c(=O)c4C3)c2)c1` (stereo not drawn) [44-35] had a pIC50 under setting [1] of over 7.30.
Under setting [1], `O=C(C(O)c1cccc(-c2ccc(Cl)cc2)c1)N1CCc2nc(C3(c4ccccc4)CC3)[nH]c(=O)c2C1` (stereo not drawn) [44-36] had a pIC50 of over 7.30.
`CCOc1ccc(-c2cccc(C(O)C(=O)N3CCc4nc(C5(c6ccccc6)CC5)[nH]c(=O)c4C3)c2)cc1` (stereo not drawn) [44-37] had a pIC50 under setting [1] of over 7.30.
The same measure, in the same setting: the value for `CC(C)Oc1ccc(-c2cccc(C(O)C(=O)N3CCc4nc(C5(c6ccccc6)CC5)[nH]c(=O)c4C3)c2)cc1` (stereo not drawn) [44-38] was over 7.30; that for `Cc1ccc(F)cc1-c1cccc(C(O)C(=O)N2CCc3nc(C4(c5ccccc5)CC4)[nH]c(=O)c3C2)c1` (stereo not drawn) [44-39] was over 7.30; that for `O=C(C(O)c1cccc(-c2csc3ccccc23)c1)N1CCc2nc(C3(c4ccccc4)CC3)[nH]c(=O)c2C1` (stereo not drawn) [44-40] was over 7.30.
As to `O=C(C(O)c1cccc(-c2ccc(C(F)(F)F)nc2)c1)N1CCc2nc(C3(c4ccccc4)CC3)[nH]c(=O)c2C1` (stereo not drawn) [44-41], under setting [1], the pIC50 was over 7.30.
`CC(C)(C)c1ccc(-c2cccc(C(O)C(=O)N3CCc4nc(C5(c6ccccc6)CC5)[nH]c(=O)c4C3)c2)cc1` (stereo not drawn) [44-42] showed a pIC50 under setting [1] of over 7.30.
The same measure, in the same setting: the value for `O=C(C(O)c1cccc(-c2ccccc2F)c1)N1CCc2nc(C3(c4ccccc4)CC3)[nH]c(=O)c2C1` (stereo not drawn) [44-43] was over 7.30; that for `O=C(C(O)c1cccc(-c2cccc(F)c2F)c1)N1CCc2nc(C3(c4ccccc4)CC3)[nH]c(=O)c2C1` (stereo not drawn) [44-44] was over 7.30.
As to `O=C(C(O)c1cccc(-c2cc(F)cc(F)c2)c1)N1CCc2nc(C3(c4ccccc4)CC3)[nH]c(=O)c2C1` (stereo not drawn) [44-45], under setting [1], the pIC50 was over 7.30.
As to `O=C(C(O)c1cccc(-c2cccc(C(F)(F)F)c2Cl)c1)N1CCc2nc(C3(c4ccccc4)CC3)[nH]c(=O)c2C1` (stereo not drawn) [44-46], the pIC50 under setting [1] was over 7.30.
The compound `O=C(C(O)c1cccc(-c2cccc(F)c2)c1)N1CCc2nc(C3(c4ccccc4)CC3)[nH]c(=O)c2C1` (stereo not drawn) [44-47] showed a pIC50 under setting [1] of over 7.30.
The same measure, in the same setting: the value for `O=C(C(O)c1cccc(-c2cc(F)ccc2F)c1)N1CCc2nc(C3(c4ccccc4)CC3)[nH]c(=O)c2C1` (stereo not drawn) [44-48] was over 7.30; that for `O=C(C(O)c1cccc(-c2ccc(F)c(F)c2)c1)N1CCc2nc(C3(c4ccccc4)CC3)[nH]c(=O)c2C1` (stereo not drawn) [44-49] was over 7.30; that for `O=C(C(O)c1cccc(-c2ccc(F)cc2)c1)N1CCc2nc(C3(c4ccccc4)CC3)[nH]c(=O)c2C1` (stereo not drawn) [44-50] was over 7.30.
The same measure, in the same setting: next, `Cc1cccc(-c2cccc(C(O)C(=O)N3CCc4nc(C5(c6ccccc6)CC5)[nH]c(=O)c4C3)c2)c1` (stereo not drawn) [44-51]: over 7.30; `O=C(C(O)c1cccc(-c2ccc(F)cc2F)c1)N1CCc2nc(C3(c4ccccc4)CC3)[nH]c(=O)c2C1` (stereo not drawn) [44-52]: over 7.30.
`COc1cccc(-c2cccc(C(O)C(=O)N3CCc4nc(C5(c6ccccc6)CC5)[nH]c(=O)c4C3)c2)c1` (stereo not drawn) [44-53] gave a pIC50 under setting [1] of over 7.30.
Under setting [1], `O=C(C(O)c1cccc(-c2ccccc2C(F)(F)F)c1)N1CCc2nc(C3(c4ccccc4)CC3)[nH]c(=O)c2C1` (stereo not drawn) [44-54] gave a pIC50 of over 7.30.
The compound `O=C(C(O)c1cccc(-c2ccccc2)c1)N1CCc2nc(C3(c4ccccc4)CC3)[nH]c(=O)c2C1` (stereo not drawn) [44-55] had a pIC50 under setting [1] of over 7.30.
Take `Cc1ccc(-c2cccc(C(O)C(=O)N3CCc4nc(C5(c6ccccc6)CC5)[nH]c(=O)c4C3)c2)cc1` (stereo not drawn) [44-56]: the pIC50 under setting [1] is over 7.30.
The compound `O=C(C(O)c1cccc(-c2ccccc2OC(F)(F)F)c1)N1CCc2nc(C3(c4ccccc4)CC3)[nH]c(=O)c2C1` (stereo not drawn) [44-57] had a pIC50 under setting [1] of over 7.30.
The same measure, in the same setting: next, `COc1ccc(-c2cccc(C(O)C(=O)N3CCc4nc(C5(c6ccccc6)CC5)[nH]c(=O)c4C3)c2)cc1` (stereo not drawn) [44-58]: over 7.30; `O=C([C@H](O)c1cccc(-c2cccc(F)c2)c1)N1CCc2nc(C3(c4ccccc4)CC3)[nH]c(=O)c2C1` [44-70]: over 7.30.

In general, pIC50 refers to the IC50 on a negative log10 scale, so that one unit is a factor of ten. Lower therefore signals a large IC50.
